The text below walks through data of the supplement of paper PMC6045584.

Compound in test [1]: CNCc1ccc(-c2[nH]c3cc(F)cc4c3c2CCNC4=O)cc1
The test can be described thus: surviving fraction relative to DMSO-only wells; higher = less growth inhibition. To be noted: exposure time: 5 days. The gist of the method: (§1)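 A line counted only if its three screens reached replicate Pearson r >0.7 and median Z' >0.3. Tumour cells in log phase were seeded at 250–500 per well in 384-well plates and, after 24 hours, kept in continuous contact with inhibitors at 0.5, 1, 5, 10, 50, 100, 500 and 1000 nM for five days. Surviving fraction was taken from CellTiter-Glo luminescence relative to the median of DMSO-only wells.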

Compound in test [2]: C[C@@H](Oc1cc(-c2cnn(C3CCNCC3)c2)cnc1N)c1c(Cl)ccc(F)c1Cl
Described as above. To be noted: exposure time: 5 days. The gist of the method: as §1

± gives the standard deviation of the averaged measurements.

OS25HAL BONE: the surviving fraction in test [1] (0.5 nM) is 0.98 ± 0.029; in test [1] (1 nM), 1.1 ± 0.024; in test [1] (5 nM) it was 1.017 ± 0.01; in test [1] (10 nM), 1.01 ± 0.032; in test [1] (50 nM) it was 0.954 ± 0.034; in test [1] (100 nM), 1.01 ± 0.052. Also, the surviving fraction in test [1] (500 nM) came to 1.003 ± 0.0071; in test [1] (1000 nM), 0.98 ± 0.039; in test [2] (0.5 nM) it was 0.913 ± 0.013; in test [2] (5 nM), 0.92 ± 0.015; in test [2] (10 nM), 0.9 ± 0.014; in test [2] (50 nM), 0.969 ± 0.017. The surviving fraction is 0.937 ± 0.016 in test [2] (100 nM), 0.813 ± 0.1 in test [2] (500 nM) and 0.285 ± 0.043 in test [2] (1000 nM).

Consider CAL120 BREAST, for which the surviving fraction in test [1] (0.5 nM) stood at 1.04 ± 0.047; in test [1] (1 nM), 0.995 ± 0.075; in test [1] (5 nM) it was 0.984 ± 0.044; in test [1] (10 nM) it was 1.01 ± 0.043; in test [1] (50 nM), 0.945 ± 0.026; in test [1] (100 nM), 0.929 ± 0.056. Also, the surviving fraction in test [1] (500 nM) worked out at 0.926 ± 0.057; in test [1] (1000 nM) it was 0.918 ± 0.043; in test [2] (0.5 nM) it was 0.912 ± 0.011; in test [2] (5 nM), 0.908 ± 0.029; in test [2] (10 nM) it was 0.898 ± 0.02; in test [2] (100 nM) it was 0.935 ± 0.017. In addition, the surviving fraction in test [2] (500 nM) was 0.676 ± 0.091; in test [2] (1000 nM), 0.547 ± 0.013.

Regarding SUM149.B1*.S BREAST, the surviving fraction in test [1] (0.5 nM) came to 1.12 ± 0.023; in test [1] (1 nM) it was 1.1 ± 0.022; in test [1] (5 nM), 1.07 ± 0.045; in test [1] (10 nM), 1.1 ± 0.045; in test [1] (50 nM), 1.01 ± 0.04; in test [1] (100 nM), 1.02 ± 0.033. The surviving fraction in test [1] (500 nM) is 0.94 ± 0.053; in test [1] (1000 nM), 1 ± 0.056; in test [2] (0.5 nM), 0.902 ± 0.028; in test [2] (1 nM), 0.898 ± 0.036; in test [2] (5 nM) it was 0.921 ± 0.037; in test [2] (10 nM) it was 0.904 ± 0.04. Besides, the surviving fraction in test [2] (50 nM) worked out at 0.96 ± 0.032; in test [2] (100 nM), 0.929 ± 0.037; in test [2] (500 nM), 0.855 ± 0.056; in test [2] (1000 nM), 0.729 ± 0.051.

Take “JURKAT HAEMATOPOIETIC AND LYMPHOID TISSUE”: the surviving fraction in test [1] (0.5 nM) came to 1.09 ± 0.018; in test [1] (1 nM) it was 1.1 ± 0.029; in test [1] (5 nM) it was 1.04 ± 0.019; in test [1] (10 nM) it was 1.02 ± 0.024; in test [1] (50 nM), 1.01 ± 0.049; in test [1] (100 nM), 1.01 ± 0.029. Further, the surviving fraction in test [1] (500 nM) is 0.979 ± 0.021; in test [1] (1000 nM), 0.916 ± 0.047; in test [2] (0.5 nM), 0.993 ± 0.024; in test [2] (1 nM), 0.993 ± 0.029; in test [2] (10 nM) it was 0.98 ± 0.013; in test [2] (50 nM), 0.984 ± 0.021. For the same test system, the surviving fraction is 0.943 ± 0.019 in test [2] (100 nM), 0.235 ± 0.013 in test [2] (500 nM) and 0.195 ± 0.013 in test [2] (1000 nM).

Regarding YAMATO SYNOVIAL, the surviving fraction in test [1] (0.5 nM) stood at 1.32 ± 0.043; in test [1] (1 nM) it was 1.35 ± 0.12; in test [1] (5 nM), 1.28 ± 0.066; in test [1] (10 nM) it was 1.3 ± 0.1; in test [1] (50 nM) it was 0.949 ± 0.13; in test [1] (100 nM), 0.982 ± 0.11. Further, the surviving fraction in test [1] (500 nM) was 0.794 ± 0.022; in test [1] (1000 nM), 0.811 ± 0.13; in test [2] (0.5 nM), 0.796 ± 0.0095; in test [2] (1 nM), 0.763 ± 0.069; in test [2] (5 nM), 0.79 ± 0.015; in test [2] (10 nM), 0.724 ± 0.12. The surviving fraction was 0.425 ± 0.015 in test [2] (50 nM), 0.309 ± 0.014 in test [2] (100 nM), 0.279 ± 0.014 in test [2] (500 nM) and 0.333 ± 0.024 in test [2] (1000 nM).

For MG63 BONE, the surviving fraction in test [1] (0.5 nM) is 1.03 ± 0.052; in test [1] (1 nM), 1.04 ± 0.032; in test [1] (5 nM), 1.05 ± 0.034; in test [1] (10 nM) it was 1.06 ± 0.058; in test [1] (50 nM), 1.03 ± 0.03; in test [1] (100 nM), 1.02 ± 0.028. The surviving fraction stood at 0.975 ± 0.031 in test [1] (500 nM); 0.938 ± 0.023 in test [1] (1000 nM); 0.898 ± 0.011 in test [2] (0.5 nM); 0.912 ± 0.016 in test [2] (1 nM); 0.91 ± 0.029 in test [2] (50 nM); 0.827 ± 0.023 in test [2] (100 nM). The results for the surviving fraction in test [2] (500 nM) and in test [2] (1000 nM) were 0.711 ± 0.02 and 0.607 ± 0.004, respectively.

On to COLO320DM LARGE INTESTINE, for which the surviving fraction in test [1] (0.5 nM) turned out to be 1.04 ± 0.067; in test [1] (1 nM) it was 1.05 ± 0.021; in test [1] (5 nM), 1.12 ± 0.027; in test [1] (10 nM), 0.962 ± 0.1; in test [1] (50 nM), 0.96 ± 0.04; in test [1] (100 nM) it was 0.933 ± 0.12. For the same test system, the surviving fraction in test [1] (500 nM) turned out to be 0.933 ± 0.066; in test [1] (1000 nM), 0.901 ± 0.014; in test [2] (1 nM) it was 1.13 ± 0.071; in test [2] (5 nM) it was 1.02 ± 0.041; in test [2] (10 nM), 0.977 ± 0.042; in test [2] (50 nM), 1.05 ± 0.042. Also, the surviving fraction stood at 1.02 ± 0.027 in test [2] (100 nM), 0.512 ± 0.0092 in test [2] (500 nM) and 0.341 ± 0.011 in test [2] (1000 nM).

Regarding CADOES1 SOFT TISSUE, the surviving fraction in test [1] (0.5 nM) is 1 ± 0.21; in test [1] (1 nM) it was 0.975 ± 0.19; in test [1] (5 nM) it was 0.903 ± 0.081; in test [1] (10 nM) it was 0.838 ± 0.045; in test [1] (50 nM) it was 1.02 ± 0.068; in test [1] (100 nM), 0.856 ± 0.12. Besides, the surviving fraction in test [1] (500 nM) worked out at 0.799 ± 0.14; in test [1] (1000 nM) it was 0.715 ± 0.22; in test [2] (1 nM), 0.89 ± 0.16; in test [2] (5 nM), 0.961 ± 0.088; in test [2] (10 nM) it was 0.936 ± 0.036; in test [2] (50 nM), 0.93 ± 0.042. For the same test system, the surviving fraction in test [2] (100 nM) is 0.941 ± 0.04; in test [2] (500 nM), 0.576 ± 0.054; in test [2] (1000 nM) it was 0.291 ± 0.033.

On to SG27 HEADNECK, for which the surviving fraction was found to be 1.15 ± 0.14 in test [1] (0.5 nM); 1.18 ± 0.21 in test [1] (1 nM); 0.878 ± 0.14 in test [1] (5 nM); 1.14 ± 0.11 in test [1] (10 nM); 0.968 ± 0.093 in test [1] (50 nM); 0.923 ± 0.03 in test [1] (100 nM). For the same test system, the surviving fraction in test [1] (500 nM) was found to be 1.05 ± 0.062; in test [1] (1000 nM), 0.989 ± 0.063; in test [2] (0.5 nM) it was 1.01 ± 0.016; in test [2] (10 nM) it was 0.893 ± 0.07; in test [2] (50 nM), 1 ± 0.089; in test [2] (100 nM) it was 0.92 ± 0.045. Further, in test [2] (1000 nM), the surviving fraction came to 0.668 ± 0.053.
